Test [1] relates to Hedgehog Signaling Pathway. The test can be described thus: SHH-induced differentiation of C3H10T1/2 cells into osteoblastic cells, intracellular alkaline phosphatase activity. The class given is cell-based, mouse. As to conditions: Mus musculus, C3H 10T1/2, 120 h, 10 nM SHH-N, 5 days, alkaline phosphatase activity (OD405), read-out: IC50 values of compounds that inhibit Hh pathway. The procedure:
The Application of SHH to Induce Pluripotent Mesenchymal Mouse Embryonic Cell C3H10T1/2 to Differentiate into Osteoblastic Cells for the Determination of the Inhibitory Activity of N-(3-(1H-benzo[d]imidazol-2-yl)-4-chlorophenyl)-2-methyl-4-((2S,6R)-2,6-dimethylmorpholino)benzamide and Analogs on Hedgehog Signaling Pathway
The C3H10T1/2 cells were grown in DMEM medium supplemented with 10% fetal bovine serum (FBS, Hyclone) at 37° C. with 5% CO2. 10000 cells were sown to each well of a 96-well microplate a day before the experiment and grown overnight. […] The reference compound and testing compounds were serially diluted 1 to 3 and 1 to 10 in DMSO to seven concentrations with the eighth concentration being DMSO. A 10-fold dilution was prepared by mixing 10 μL of the DMSO dilutions with 90 μL of fresh growing medium. Pre-sown cells were taken out from incubator and the medium was removed. To each well, 180 μL of inducing medium containing 10 nM of SHH-N was added and followed immediately with 20 μL of 10× testing or reference compound dilutions. The testing compound concentrations are between 10 μM and 10 nM. The cells were then returned to CO2 incubator to grow additional 5 days at 37° C.
(§1) After incubating for 5 days, the cells were taken out and intracellular alkaline phosphatase activity was tested. The alkaline phosphatase activity was measured as follows:
3) Preparation of Substrate Solution:
(§2) Solution A: A 0.5 mM MgCl2 (Sigma Prod. No. M-0250) solution was prepared.
(§3) After the pH value was adjusted to 9.8 with 5 M HCl at 37° C., the total volume was adjusted to 100 mL.
(§4) After it is completely dissolved the total volume was adjusted to 10 mL with the final concentration being 1 mM.
Substrate reaction medium: to 10 mL of solution B, 250 μL of solution A and 200 μL of solution C were added, and mixed well.
4) The Measurement of Intracellular Alkaline Phosphatase Activity:
(§5) After taking out the cells from the incubator, the cell culture medium was removed and cells were washed twice with PBS. 20 μL of lysis solution (0.2% Triton solution) was added to each well. After being shaken for 30 min at room temperature, each well of cells received 80 μL of substrate reaction medium. The microplate was placed immediately into a VariSkan Flashplate reader and absorbance at OD405 was read as background reading. The plate was replaced back to cell culture incubator at 37° C. for additional 30 min and the absorbance was read again using VariSkan Flash plate reader at OD405.
The data were analyzed by subtracting the background reading from the reading at 30 min, and the obtained numbers were plotted and analyzed with Prism 5 software (GraphPad). The phosphatase activity (calculated OD405) was plotted against the log concentration of testing compound, and the obtained plot was fitted with non-linear curve fitting equation to calculate IC50 values. The curve fitting equation is Y=Bottom+(Top−Bottom)/(1+10^(X−Log IC50)). X is the logarithm of concentration. Y is the measure of alkaline phosphatase activity (OD405).
(§6) The calculated IC50 value is a measurement of the inhibitory activity of compound to Hh pathway.

The subject of test [2] is Hedgehog Signaling Pathway. The test can be described thus: SAG-induced differentiation of C3H10T1/2 cells into osteoblastic cells, intracellular alkaline phosphatase activity. It counts as cell-based, mouse. As to conditions: Mus musculus, C3H 10T1/2, 120 h, 1 μM SAG, 5 days, alkaline phosphatase activity (OD405), read-out: IC50 values of compounds that inhibit Hh pathway.
Source text: The Application of SAG to Induce Pluripotent Mesenchymal Mouse Embryonic Cell C3H/10T1/2 to Differentiate into Osteoblastic Cells for the Determination of the Inhibitory Activity of N-(3-(1H-benzo[d]imidazol-2-yl)-4-chlorophenyl)-2-methyl-4-((2S,6R)-2,6-dimethylmorpholino)benzamide and Analogs on Hedgehog Signaling Pathway
The intracellular alkaline phosphatase activity is a reliable indication of the differentiation process. Therefore this enzymatic activity can be used to monitor the activity of hedgehog pathway inhibitors.
The C3H10T1/2 cells were grown in DMEM medium supplemented with 10% fetal bovine serum (FBS, Hyclone) at 37° C. with 5% CO2. 10000 cells were sown to each well of a 96-well microplate a day before the experiment and grown overnight. At the day of experiment, the inducing medium and inhibitor solutions were prepared as follows: the reference compound and testing compounds were serially diluted 1 to 3 and 1 to 10 in DMSO to seven concentrations with the eighth concentration being DMSO. A 10-fold dilution was prepared by mixing 10 μL of the DMSO dilution with 90 μL of fresh growing medium. […] Pre-sown cells were taken out from incubator and the medium was removed. To each well, 180 μL inducing medium was added and followed immediately with 20 μL of testing or reference compound dilutions. The testing compound concentrations are between 10 μM and 1 nM. The cells were then return to CO2 incubator to grow additional 5 days at 37° C.
as §1
1) Preparation of Substrate Solution:
as §2, §3, §4
Substrate reaction medium: To 10 mL of solution B, 250 μL of solution A and 200 μL of solution C were added, and mixed well.
2) the Measurement of Intracellular Alkaline Phosphatase Activity:
as §5
The data were analyzed by subtracting the background reading from the reading at 30 min, and the obtained numbers were plotted and analyzed with Prism 5 software (GraphPad). The phosphatase activity (calculated OD405) was plotted against the log concentration of testing compound, and the obtained plot was fitted with non-linear curve fitting equation to calculate IC50 values. The curve fitting equation is Y=Bottom+(Top−Bottom)/(1+10^((X−Log IC50))). X is the logarithm of concentration. Y is the measure of alkaline phosphatase activity (OD405).
as §6

The IC50 is the concentration that inhibits the measured activity by half. `Cc1ccc(NC(=O)c2ccc(N3C[C@@H](C)N(C)[C@@H](C)C3)cc2Cl)cc1-c1nc2ccccc2[nH]1` [Example 102, N-(3-(1H-benzo[d]imidazol-2-yl)-4-methylphenyl)-2-chloro-4-((3S,5R)-3,4,5-trimethylpiperazin-1-yl)benzamide]: the IC50 in test [1] came out at 3.9 nM; in test [2], 47 nM.

With `Cc1cc(-c2ccc(C(F)(F)F)cc2)ccc1C(=O)Nc1cccc(-c2nc3ccccc3[nH]2)c1Cl` [Example 64, N-(3-(1H-benzo[d]imidazol-2-yl)-2-chlorophenyl)-3-methyl-4′-(trifluoromethyl)biphenyl-4-carboxamide], the IC50 in test [1] stood at 1130 nM; in test [2], 636 nM.

`Cc1cc(-c2ccc(C(F)(F)F)cc2)ccc1C(=O)Nc1cccc(-c2nc3ccccc3[nH]2)n1` [Example 72, N-(6-(1H-benzo[d]imidazol-2-yl)pyridin-2-yl)-3-methyl-4′-(trifluoromethyl)biphenyl-4-carboxamide]: the IC50 in test [1] is 467 nM; in test [2] it was greater than 10000 nM.

As for `O=C(Nc1ccc(Cl)c(-c2nc3ccccc3[nH]2)c1)c1ccc(-c2ccc(C(F)(F)F)cc2)cc1O` [Example 16, N-(3-(1H-benzo[d]imidazol-2-yl)-4-chlorophenyl)-3-hydroxy-4′-(trifluoromethyl)biphenyl-4-carboxamide], the IC50 in test [1] and in test [2] was greater than 10000 nM throughout.

Consider `COc1ccc(NC(=O)c2ccc(-c3ccc(C(F)(F)F)cc3)cc2C)cc1-c1nc2ccccc2[nH]1` [Example 76, N-(3-(1H-benzo[d]imidazol-2-yl)-4-methoxyphenyl)-3-methyl-4′-(trifluoromethyl)biphenyl-4-carboxamide], for which the IC50 in test [1] and in test [2] was greater than 10000 nM each time.

Turning to `Cc1cc(-c2ccc(C(F)(F)F)cc2)ccc1C(=O)Nc1cccc(-c2cn3ccccc3n2)c1` [Example 56, N-(3-(imidazo[1,2-a]pyridin-2-yl)phenyl)-3-methyl-4′-(trifluoromethyl)biphenyl-4-carboxamide], the figures for the IC50 in test [1] and in test [2] were 189 nM and 2370 nM, respectively.

For `O=c1c2ccc(-c3ccc(C(F)(F)F)cc3)cc2ncn1-c1ccc(Cl)c(-c2nc3ccccc3[nH]2)c1` [Example 27, 3-(3-(1H-benzo[d]imidazol-2-yl)-4-chlorophenyl)-7-(4-(trifluoromethyl)phenyl)quinazolin-4(3H)-one], the half-inhibitory concentration (IC50) in test [1] was found to be 57 nM; in test [2] it was 151 nM.

For `Cc1cc(-c2ccoc2)ccc1C(=O)Nc1ccc(Cl)c(-c2nc3ccccc3[nH]2)c1` [Example 41, N-(3-(1H-benzo[d]imidazol-2-yl)-4-chlorophenyl)-2-methyl-4-(furan-3-yl)benzamide], the results for the IC50 in test [1] and in test [2] were 32 nM and 99 nM, respectively.

On to `Cc1cc(N2CCNCC2)ccc1C(=O)Nc1ccc(Cl)c(-c2nc3ccccc3[nH]2)c1` [Example 108, N-(3-(1H-benzo[d]imidazol-2-yl)-4-chlorophenyl)-2-methyl-4-(piperazin-1-yl)benzamide], for which the values for the IC50 in test [1] and in test [2] were 76 nM and 698 nM, respectively.

In the case of `Cc1cc(-c2ccc(F)cc2)ccc1C(=O)Nc1ccc(Cl)c(-c2nc3ccccc3[nH]2)c1` [Example 4, N-(3-(1H-benzo[d]imidazol-2-yl)-4-chlorophenyl)-3-methyl-4′-fluorobiphenyl-4-carboxamide], the IC50 in test [1] was 7.8 nM; in test [2] it was 86 nM.

Consider `Cc1cc(-c2ccc(S(C)(=O)=O)cc2)ccc1C(=O)Nc1ccc(Cl)c(-c2nc3ccccc3[nH]2)c1` [Example 5, N-(3-(1H-benzo[d]imidazol-2-yl)-4-chlorophenyl)-3-methyl-4′-(methylsulfonyl)biphenyl-4-carboxamide], for which the IC50 in test [1] worked out at 5.9 nM; in test [2], 26 nM.

Consider `COc1cc(-c2ccc(C(F)(F)F)cc2)ccc1C(=O)Nc1ccc(Cl)c(-c2nc3ccccc3[nH]2)c1` [Example 15, N-(3-(1H-benzo[d]imidazol-2-yl)-4-chlorophenyl)-3-methoxy-4′-(trifluoromethyl)biphenyl-4-carboxamide], for which the IC50 in test [1] was 40 nM; in test [2], greater than 10000 nM.

As for `Cc1cc(N2CCOCC2)ccc1C(=O)Nc1ccc(Cl)c(-c2nc3ccccc3[nH]2)c1` [Example 30, N-(3-(1H-benzo[d]imidazol-2-yl)-4-chlorophenyl)-2-methyl-4-morpholinobenzamide], the IC50 in test [1] amounted to 31 nM; in test [2] it was 88 nM.

Regarding `Cc1cc(-c2ccc(C(F)(F)F)cc2)ccc1C(=O)Nc1ccc(Cl)c(-c2nnc3cnccn23)c1` [Example 54, N-(3-([1,2,4]triazolo[4,3-a]pyrazin-3-yl)-4-chlorophenyl)-3-methyl-4′-(trifluoromethyl)biphenyl-4-carboxamide], the IC50 in test [1] and in test [2] was greater than 10000 nM in each case.

On to `Cc1cc(C(=O)Nc2ccc(Cl)c(-c3nc4ccccc4[nH]3)c2)cnc1N1C[C@@H](C)O[C@@H](C)C1` [Example 37, N-(3-(1H-benzo[d]imidazol-2-yl)-4-chlorophenyl)-5-methyl-6-((2S,6R)-2,6-dimethylmorpholino)nicotinamide], for which the IC50 in test [1] was found to be 52 nM; in test [2] it was 167 nM.

Consider `O=C1c2ccc(-c3ccccc3)cc2CCN1c1ccc(Cl)c(-c2nc3ccccc3[nH]2)c1` [Example 29, 2-(3-(1H-benzo[d]imidazol-2-yl)-4-chlorophenyl)-6-phenyl-3,4-dihydroisoquinolin-1(2H)-one], for which the IC50 is 72 nM in test [1] and greater than 10000 nM in test [2].

For the compound `Cc1cc(-c2cccnc2)ccc1C(=O)Nc1ccc(Cl)c(-c2nc3ccccc3[nH]2)c1` [Example 40, N-(3-(1H-benzo[d]imidazol-2-yl)-4-chlorophenyl)-2-methyl-4-(pyridin-3-yl)benzamide], the IC50 in test [1] turned out to be 13 nM; in test [2], 27 nM.

As to `O=C(Nc1ccc(Cl)c(-c2nc3ccccc3[nH]2)c1)c1ccc(-c2ccccc2)cc1` [Example 23, N-(3-(1H-benzo[d]imidazol-2-yl)-4-chlorophenyl) biphenyl-4-carboxamide], the values for the IC50 in test [1] and in test [2] were 24 nM and 163 nM, respectively.

In the case of `O=C(Nc1ccc(Cl)c(-c2nc3ccccc3[nH]2)c1)c1ccc(-c2cccc(F)c2)cc1` [Example 13, N-(3-(1H-benzo[d]imidazol-2-yl)-4-chlorophenyl)-3′-fluorobiphenyl-4-carboxamide], the figures for the IC50 in test [1] and in test [2] were 14.6 nM and 86 nM, respectively.

For the origin of these results see patent US10676468B2, “N-(3-heteroarylaryl)-4-arylarylcarboxamides and analogs as hedgehog pathway inhibitors and use thereof” (IMPACT Therapeutics, Inc., priority 2012, dated 2020).
